From ChEMBL document CHEMBL1201862, “PubChem BioAssay data set” (2004)
Active and inactive are the calls of the source. Rule as the data show it, for most assays here: actives have a measured EC50 and inactives only a lower limit.

How the values were obtained:
[1] = biological target: Luciferin 4-monooxygenase (Photinus pyralis, UniProt P08659); assay: inhibition of purified Photinus pyralis luciferase – biochemical, luminescence, dose response (AID 1891)
[2] = Luminescence Cell-Based Dose Confirmation HTS to Identify Inhibitors of Platelet Dense Granule Release. [Related pubchem assays: 1663 (Primary HTS), 1678 (Summary of Project)]; format: functional
[3] = fluconazole-exposed Candida albicans growth modulators – fluorescence, retest, confirmation (AID 2467); format: functional, cell-based
[4] = NIH-3T3 fibroblast cytotoxicity, dose response, cytotoxicity control, cell-based, fluorescence, Alamar Blue, secondary assay (AID 2327); format: functional;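 also: NIH-3T3 mouse fibroblasts cultured with fluconazole at 8 µg/mL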
[5] = biological target: T1, Calpain-2 catalytic subunit (Sus scrofa, UniProt P43367); assay: m-calpain protease blockers, concentration series – biochemical, fluorogenic peptide substrate, dose response (AID 1420); format: functional
T1 sequence (P43367 whole entry): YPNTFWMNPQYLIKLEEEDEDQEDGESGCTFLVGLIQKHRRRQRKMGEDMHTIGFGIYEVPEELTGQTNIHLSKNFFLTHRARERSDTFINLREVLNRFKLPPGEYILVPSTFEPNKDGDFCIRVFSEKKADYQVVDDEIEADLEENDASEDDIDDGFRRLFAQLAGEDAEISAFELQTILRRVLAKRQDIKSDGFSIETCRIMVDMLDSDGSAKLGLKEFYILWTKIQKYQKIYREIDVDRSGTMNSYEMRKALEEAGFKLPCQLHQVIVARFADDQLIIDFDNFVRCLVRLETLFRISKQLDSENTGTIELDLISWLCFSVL

[6] = Luminescence Cell-Based Dose Retest to Confirm Inhibitors of Cancer Stem Cells. [Related pubchem assays (depositor defined):AID2717, AID2721]; format: functional; settings: Homo sapiens
[7] = luciferase reporter signal suppression in cells – H4 neuroglioma cells, luminescence, dose response (AID 1990); format: functional, cell-based
[8] = Luminescence Cell-Based Dose Response HTS to Identify Inhibitors of 5'UTR Stem-Loop Driven Prion Protein mRNA Translation in H4 Neuroglioblastoma Cells. [Related pubchem assays: 1827 (Project Summary), 1813 (Primary HTS)]; format: functional
[9] = alpha-synuclein stem-loop luciferase translation blockers – H4 neuroglioma cells, luminescence, confirmation (AID 1988); format: functional, cell-based
BJ [10] = assay: BJ-TERT-LT-ST fibroblast viability loss – cell-based, RAS-independent, luminescence, dose response (AID 1935); format: functional; settings: Homo sapiens;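 also: BJ fibroblasts immortalized with TERT plus LT and ST oncogenes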
BJ [11] = assay: cells; format: functional, cell-based; settings: Homo sapiens
[12] = DRD fibroblast viability loss – cell-based, non-viral oncogenic, luminescence, dose response (AID 1934); format: functional; settings: Homo sapiens
BJ [13] = assay: BJ-TERT fibroblast viability loss – cell-based, RAS-independent, luminescence, dose response (AID 1933); format: functional; settings: Homo sapiens
[14] = biological target: T2, Rac GTPase-activating protein 1 (Homo sapiens, UniProt Q9H0H5); assay: blockers of MgcRacGAP-driven Rac1 GTP hydrolysis – biochemical, ADP Hunter fluorescence, primary and confirmatory, confirmation (AID 624330); format: functional
T2 sequence (Q9H0H5 whole entry): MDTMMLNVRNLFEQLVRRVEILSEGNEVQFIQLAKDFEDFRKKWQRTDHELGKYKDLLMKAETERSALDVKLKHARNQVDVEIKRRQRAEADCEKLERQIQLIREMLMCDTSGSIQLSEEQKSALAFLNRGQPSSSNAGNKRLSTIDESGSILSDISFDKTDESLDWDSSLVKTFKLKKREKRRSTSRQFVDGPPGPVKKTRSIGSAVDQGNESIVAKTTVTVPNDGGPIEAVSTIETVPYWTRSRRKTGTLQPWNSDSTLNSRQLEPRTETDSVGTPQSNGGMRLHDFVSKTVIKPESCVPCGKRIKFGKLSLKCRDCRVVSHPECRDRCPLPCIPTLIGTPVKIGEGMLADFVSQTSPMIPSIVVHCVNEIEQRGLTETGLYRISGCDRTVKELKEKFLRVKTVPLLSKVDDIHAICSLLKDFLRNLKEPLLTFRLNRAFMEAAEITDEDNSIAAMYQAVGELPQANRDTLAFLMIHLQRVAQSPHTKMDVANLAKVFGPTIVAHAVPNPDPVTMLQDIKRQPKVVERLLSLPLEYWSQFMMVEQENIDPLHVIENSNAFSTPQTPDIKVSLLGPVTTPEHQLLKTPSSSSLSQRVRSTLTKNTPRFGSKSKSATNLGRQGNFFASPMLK

Paired box protein Pax-8 = Paired box protein Pax-8 (Homo sapiens, UniProt Q06710); assay: PAX8 transcriptional activity inhibition in RMG-I – RMG-I cells, luciferase, cherry-pick, dose response (AID 687027); format: functional, cell-based;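 also: luciferase reporter driven by Pax8 target thyroperoxidase promoter measured by SteadyGlo luminescence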
INS1 = assay: INS-1E survival protection against cytokine death – cell-based, luminescence, retest, dose response (AID 449756); format: functional; settings: Rattus norvegicus;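 also: cell death triggered by IL-1 beta plus TNF-alpha plus IFN-gamma mixture; protective hits raise ATP signal compared with cytokine alone wells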
[15] = viability of HCT116 lacking mutant beta-catenin – cell-based, human colon tumor, dose response (AID 1045); format: functional;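 also: HCT116 colon tumor cells with beta catenin knocked out; cells exposed to compound for 60 hours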
[16] = viability of PTEN-deleted HCT116 cells – cell-based, HCT116 PTEN knockout, dose response (AID 1047); format: functional;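 also: HCT116 colon tumor cells with PTEN knocked out; cells exposed to compound for 60 hours before readout; potency for loss of cell viability measured by luminescence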
[17] = NIH3T3 cell viability loss – ATP luminescence, mouse fibroblasts, counter-screen, dose response (AID 2010); format: functional, cell-based;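 also: cells exposed to compound for about 90 hours before reading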
[18] = Trypanosoma cruzi growth suppression in host cells – NIH3T3 host cells, beta-gal luminescence, confirmation (AID 2044); format: functional, cell-based;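 also: intracellular parasites grown in NIH/3T3 mouse fibroblasts as host cells; luminescent beta-galactosidase reporter signal from transgenic T. cruzi replicating inside host cells; inhibitors lower the luminescence signal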

Sequence of Paired box protein Pax-8 (Q06710 whole entry): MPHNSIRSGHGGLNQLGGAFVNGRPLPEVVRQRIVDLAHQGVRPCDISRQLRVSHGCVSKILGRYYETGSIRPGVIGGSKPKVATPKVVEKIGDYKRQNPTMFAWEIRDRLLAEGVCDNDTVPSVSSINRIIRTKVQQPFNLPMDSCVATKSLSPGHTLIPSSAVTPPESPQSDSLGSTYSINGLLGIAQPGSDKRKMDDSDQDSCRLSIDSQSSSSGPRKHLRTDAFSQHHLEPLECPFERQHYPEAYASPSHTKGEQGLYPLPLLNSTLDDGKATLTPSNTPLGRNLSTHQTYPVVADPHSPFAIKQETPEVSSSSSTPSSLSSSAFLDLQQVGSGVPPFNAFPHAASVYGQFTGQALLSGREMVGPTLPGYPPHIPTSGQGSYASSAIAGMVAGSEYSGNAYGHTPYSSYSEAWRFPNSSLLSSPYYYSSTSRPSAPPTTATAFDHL
Sequence of Luciferin 4-monooxygenase (P08659 whole entry): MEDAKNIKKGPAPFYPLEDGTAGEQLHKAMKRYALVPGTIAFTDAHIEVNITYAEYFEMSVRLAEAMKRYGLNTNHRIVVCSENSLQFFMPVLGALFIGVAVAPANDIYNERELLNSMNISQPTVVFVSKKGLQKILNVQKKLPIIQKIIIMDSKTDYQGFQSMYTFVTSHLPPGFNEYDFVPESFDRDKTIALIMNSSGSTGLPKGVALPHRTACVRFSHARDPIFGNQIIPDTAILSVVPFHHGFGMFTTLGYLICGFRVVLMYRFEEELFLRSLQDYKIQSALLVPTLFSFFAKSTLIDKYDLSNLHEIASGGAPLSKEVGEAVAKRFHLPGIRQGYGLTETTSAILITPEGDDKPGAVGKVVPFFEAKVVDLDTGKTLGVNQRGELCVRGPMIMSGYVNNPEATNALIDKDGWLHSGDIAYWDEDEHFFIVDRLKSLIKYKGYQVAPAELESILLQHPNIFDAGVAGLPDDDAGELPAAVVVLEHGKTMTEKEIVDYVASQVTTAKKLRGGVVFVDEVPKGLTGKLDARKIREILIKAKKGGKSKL

## COc1ccc(C(=O)Nc2cccc(C)c2)cc1
[1]
  EC50: 16.1 µM (active)
[2]
  EC50: 7.08 µM (active)

## CCNS(=O)(=O)c1ccc(NC(=O)c2cccnc2)cc1
[1]
  EC50: > 112 µM (not active)
[3]
  EC50: > 38 µM (not active)
[2]
  EC50: > 112 µM (not active)
[4]
  EC50: > 160 µM (inactive)

## COC(=O)c1ccccc1NC(=S)NC(=O)COc1ccccc1
[5]
  IC50: 6.37 µM (not active)

## CC(C)CC(C(=O)OCC(=O)c1c(N)n(C)c(=O)n(C)c1=O)N1C(=O)C2CC=CCC2C1=O (stereo not drawn)
[5]
  IC50: 12.9 µM (not active)

## Cn1c(=O)[nH]c(=O)c2[nH]c(N(Cc3ccccc3)Cc3ccccc3)nc21
[5]
  IC50: > 50 µM (not active)

## Cn1c(NC(=O)Cc2cccs2)cc(=O)n(C)c1=O
[1]
  EC50: > 112 µM (not active)
[2]
  EC50: > 112 µM (not active)

## CC(=O)c1ccc(N=C(S)N(Cc2ccccc2)C(C)C2CC2)cc1 (stereo not drawn)
[5]
  IC50: 23.9 µM (not active)

## CC1N(O)C(c2ccc(Cl)cc2Cl)N(O)C1(C)C (stereo not drawn)
[1]
  EC50: > 112 µM (not active)
[2]
  EC50: > 112 µM (not active)

## CCCCCCSc1ccc(-c2nc3ccccn3c2NCCCC)cc1
[6]
  AC50: 4.4 µM (active)

## O=C(NCc1cccc(Cl)c1)c1ccc2c(c1)SC1=NS(=O)(=O)CCN12
[5]
  IC50: 14.8 µM (not active)

## COc1cccc(NP(=O)(Oc2ccccc2)Oc2ccccc2)c1
[6]
  AC50: 0.935 µM (active)
[7]
  EC50: > 120 µM (not active)
[8]
  EC50: 59.4 µM (active)
[9]
  EC50: > 120 µM (not active)

## CC(C)(C)NC(=O)c1cc(C(C)(C)C)c(O)c(C(C)(C)C)c1
[5]
  IC50: 3.38 µM (not active)

## COc1ccc(NC(=O)CN(c2ccccc2)S(=O)(=O)c2ccccc2)c(OC)c1
[5]
  IC50: 49.3 µM (not active)

## c1ccc(CCn2nnnc2CN2CCN(C3CCCC3)CC2)cc1
[5]
  IC50: > 50 µM (not active)

## N#Cc1ccsc1NC(=O)CCc1ccccc1
BJ [10]
  EC50: 18.1 µM (active)
BJ [11]
  EC50: 34.1 µM (active)
[12]
  EC50: 19.3 µM (active)
BJ [13]
  EC50: 15.7 µM (active)

## O=[N+]([O-])c1ccc2c(c1)C(N1CCOCC1)/C(=C/COc1ccc(Cl)cc1Cl)O2 (stereo not drawn)
[5]
  IC50: 5.41 µM (not active)

## COC(=O)c1cc2n(n1)CCN(Cc1ccc(F)cc1)C2=O
[1]
  EC50: > 112 µM (not active)
[2]
  EC50: > 112 µM (not active)

## COc1cc(OC)cc(C(=O)N2CCN(Cc3ccccc3Br)CC2)c1
[14]
  IC50: 325 µM (active)

## COc1cc2c(cc1OC)-c1cc(Nc3ccc(C)cc3)nc(=O)n1CC2
[1]
  EC50: > 112 µM (not active)
[2]
  EC50: 3.46 µM (active)

## CC(Sc1ccccc1)C(=O)Nc1ccccc1C(=O)N1CCOCC1 (stereo not drawn)
[1]
  EC50: > 112 µM (not active)
[2]
  EC50: > 112 µM (not active)

## CCOC(=O)C1=C(CSc2nc3ccccc3s2)NC(=O)NC1c1ccc(OC)cc1 (stereo not drawn)
[6]
  AC50: 5.99 µM (active)

## CC1CCN(CCc2nc3cc(NS(=O)(=O)c4ccccc4)ccc3n2C)CC1
Paired box protein Pax-8
  AC50: 12.1 µM (active)

## Cc1ccc(NS(=O)(=O)c2cc([N+](=O)[O-])ccc2NN=C(S)Nc2cc(C)ccc2C)c(C)c1
[6]
  AC50: 1.12 µM (active)
INS1
  AC50: 4.42 µM (active)

## CC(=O)Nc1cccc(NC(=O)C(=O)Nc2ccc3c(c2)N(C(=O)C2CC2)CCC3)c1
[1]
  EC50: 31 µM (active)
[2]
  EC50: > 112 µM (not active)

## CCCCOc1ccccc1NC(=O)Cn1c(-c2nonc2N)nc2ccccc21
BJ [10]
  EC50: 3.73 µM (inconclusive)
[7]
  EC50: 7.21 µM (inconclusive)
[15]
  EC50: 0.163 µM (active)
BJ [11]
  EC50: 7.06 µM (active)
[8]
  EC50: 8.28 µM (active)
[12]
  EC50: 4.23 µM (active)
[16]
  EC50: 0.254 µM (active)
[9]
  EC50: 2.49 µM (active)
BJ [13]
  EC50: 3.38 µM (active)

## O=C(CSc1ncc(C(F)(F)F)cc1Cl)N1CCN(S(=O)(=O)c2ccc(Cl)cc2)CC1
[5]
  IC50: 4.37 µM (not active)

## Cc1ccc(CCc2nnc(SCC(=O)Nc3cccc(Cl)c3)n2-c2ccccc2)o1
Paired box protein Pax-8
  AC50: 25.4 µM (active)

## O=C(CNCc1cccs1)Nc1ccc(N2CCCCCC2)cc1
[14]
  IC50: 107 µM (active)

## CCOC(=O)C1=C(CNCCc2ccc(Cl)cc2)NC(=O)NC1c1ccc2c(c1)OCO2 (stereo not drawn)
[5]
  IC50: > 50 µM (not active)
[17]
  EC50: > 60 µM (not active)
[18]
  EC50: 13.3 µM (active)

## COCCCNC(=O)Cn1c(=O)n(CCCCCC(=O)Nc2ccccc2)c(=O)c2sccc21
[1]
  EC50: > 112 µM (not active)
[2]
  EC50: > 112 µM (not active)

## Cc1ccc(C)c(C2NC(=O)c3ccccc3N2)c1 (stereo not drawn)
BJ [10]
  EC50: 18.2 µM (active)
BJ [11]
  EC50: 93.9 µM (active)
[12]
  EC50: 19.3 µM (inconclusive)
BJ [13]
  EC50: 9.8 µM (inconclusive)

## O=C1Nc2ccccc2C1=Nc1ccc2[nH]c3ccccc3c2c1
[14]
  IC50: 16.6 µM (active)

## CN1CCN(C(=O)/C=C/c2ccc([N+](=O)[O-])o2)CC1
BJ [10]
  EC50: > 150 µM (not active)
BJ [11]
  EC50: > 150 µM (not active)
[12]
  EC50: > 150 µM (not active)
BJ [13]
  EC50: 44.6 µM (active)

## C[C@@H]1CN([C@H](C)CO)S(=O)(=O)c2ccc(C#Cc3ccncc3)cc2O[C@H]1CN(C)C(=O)Nc1ccc2c(c1)OCO2
Paired box protein Pax-8
  AC50: 3.68 µM (active)

## O=C(C[C@H]1CC[C@@H]2[C@H](COC[C@@H](O)CN2Cc2ccc(F)cc2)O1)NCc1ccccc1Cl
Paired box protein Pax-8
  AC50: 41.2 µM (active)

## C[C@@H]1CN([C@H](C)CO)C(=O)c2cc(NS(=O)(=O)c3ccc(F)cc3)ccc2O[C@@H]1CN(C)Cc1ccc(C(F)(F)F)cc1
Paired box protein Pax-8
  AC50: 22.2 µM (active)

## C[C@@H]1CCCCO[C@H](CN(C)Cc2ccc(C(F)(F)F)cc2)[C@@H](C)CN([C@@H](C)CO)C(=O)c2cc(NS(=O)(=O)c3cccs3)ccc2O1
Paired box protein Pax-8
  AC50: 7.62 µM (active)

## O=C(CNS(=O)(=O)c1ccccc1)N/N=C/c1ccc(O)cc1
[14]
  IC50: 60 µM (active)

## NC(=O)N/N=C/c1cn(-c2ccccc2)nc1-c1cccs1
BJ [10]
  EC50: > 150 µM (not active)
BJ [11]
  EC50: > 150 µM (not active)
[12]
  EC50: 36 µM (active)
BJ [13]
  EC50: 19.4 µM (active)

## COc1ccc(/C=N/Nc2nn3cnnc3c3ccccc23)cc1
[5]
  IC50: 5.99 µM (not active)

## CC(C)NC(=S)N/N=C/c1ccc2c(c1)OCCO2
[5]
  IC50: > 50 µM (not active)
